# Measured values published in ChEMBL document CHEMBL3044756, “Distribution of trunk-injected ¹⁴C-imidacloprid in ash trees and effects on emerald ash borer (Coleoptera: Buprestidae) adults” (2009).
# Tests used:
# Type in all cases: functional
# Agrilus planipennis [1] = test: Insecticidal activity against Agrilus planipennis infected ash trees assessed as mortality at 25 uCi treated by trunk injection measured after 45 days
# Agrilus planipennis [2] = test: Insecticidal activity against Agrilus planipennis infected ash trees assessed as mortality at 25 uCi treated by trunk injection measured after 21 days
# Agrilus planipennis [3] = test: Insecticidal activity against Agrilus planipennis isolated from 21 days after 25 uCi compound treated by trunk injected ash tree leaves assessed as mortality at 64 ug/g
# Agrilus planipennis [4] = test: Insecticidal activity against Agrilus planipennis isolated from 21 days after 25 uCi compound treated by trunk injected ash tree leaves assessed as mortality measured after 3 days of feeding
# Agrilus planipennis [5] = test: Insecticidal activity against Agrilus planipennis isolated from 21 days after 25 uCi compound treated by trunk injected ash tree leaves assessed as mortality at 0.55 to 60 ug/g
# Agrilus planipennis [6] = test: Insecticidal activity against Agrilus planipennis isolated from 45 days after 25 uCi compound treated by trunk injected ash tree leaves assessed as mortality measured after 3 days of feeding
structure (smiles),measurement,setting,value
O=[N+]([O-])/N=C1\NCCN1Cc1ccc(Cl)nc1 [IMIDACLOPRID],Activity,Agrilus planipennis [1],17%
same,Activity,Agrilus planipennis [2],11%
same,Activity,Agrilus planipennis [3],70%
same,Activity,Agrilus planipennis [4],44%
same,Activity,Agrilus planipennis [5],11%
same,Activity,Agrilus planipennis [6],70%
